Assay results: ChEMBL document CHEMBL1201862, “PubChem BioAssay data set” (2004)
The source made the active and inactive calls.

Key:
[1] = biological target: Mu-type opioid receptor (Homo sapiens, UniProt P35372); format: functional, cell-based;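 note: U2OS cells with beta-arrestin recruitment to OPRM1 by beta-gal complementation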
[2] = biological target: 5-hydroxytryptamine receptor 2A (Mus musculus, UniProt P35363); format: functional, cell-based;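 note: CHO-K1 cells with tagged receptor and beta-arrestin; agonist potency measured as compound-induced activation of the receptor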
Sequence of 5-hydroxytryptamine receptor 2A (P35363 whole entry, the tested form may be a part): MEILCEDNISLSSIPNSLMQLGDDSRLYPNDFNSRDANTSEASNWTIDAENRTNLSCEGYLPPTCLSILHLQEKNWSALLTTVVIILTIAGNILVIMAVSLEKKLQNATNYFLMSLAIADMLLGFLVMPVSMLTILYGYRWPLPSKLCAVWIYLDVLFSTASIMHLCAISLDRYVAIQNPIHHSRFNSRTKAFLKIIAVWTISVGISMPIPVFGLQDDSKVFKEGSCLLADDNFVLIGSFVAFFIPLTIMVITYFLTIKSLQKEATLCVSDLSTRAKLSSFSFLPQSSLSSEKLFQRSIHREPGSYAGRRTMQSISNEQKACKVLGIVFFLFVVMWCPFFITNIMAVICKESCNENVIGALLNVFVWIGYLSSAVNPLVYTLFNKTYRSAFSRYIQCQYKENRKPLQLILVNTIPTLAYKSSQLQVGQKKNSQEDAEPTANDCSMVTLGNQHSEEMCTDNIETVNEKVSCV

[3] = biological target: Arf-GAP with SH3 domain, ANK repeat and PH domain-containing protein 1 (Homo sapiens, UniProt Q9ULH1); format: functional;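 note: biochemical fluorescence polarization dose–response screen measuring inhibition of ASAP1; ASAP1 GAP domain stimulating GTP hydrolysis by truncated human ARF1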
Sequence of Arf-GAP with SH3 domain, ANK repeat and PH domain-containing protein 1 (Q9ULH1 whole entry, the tested form may be a part): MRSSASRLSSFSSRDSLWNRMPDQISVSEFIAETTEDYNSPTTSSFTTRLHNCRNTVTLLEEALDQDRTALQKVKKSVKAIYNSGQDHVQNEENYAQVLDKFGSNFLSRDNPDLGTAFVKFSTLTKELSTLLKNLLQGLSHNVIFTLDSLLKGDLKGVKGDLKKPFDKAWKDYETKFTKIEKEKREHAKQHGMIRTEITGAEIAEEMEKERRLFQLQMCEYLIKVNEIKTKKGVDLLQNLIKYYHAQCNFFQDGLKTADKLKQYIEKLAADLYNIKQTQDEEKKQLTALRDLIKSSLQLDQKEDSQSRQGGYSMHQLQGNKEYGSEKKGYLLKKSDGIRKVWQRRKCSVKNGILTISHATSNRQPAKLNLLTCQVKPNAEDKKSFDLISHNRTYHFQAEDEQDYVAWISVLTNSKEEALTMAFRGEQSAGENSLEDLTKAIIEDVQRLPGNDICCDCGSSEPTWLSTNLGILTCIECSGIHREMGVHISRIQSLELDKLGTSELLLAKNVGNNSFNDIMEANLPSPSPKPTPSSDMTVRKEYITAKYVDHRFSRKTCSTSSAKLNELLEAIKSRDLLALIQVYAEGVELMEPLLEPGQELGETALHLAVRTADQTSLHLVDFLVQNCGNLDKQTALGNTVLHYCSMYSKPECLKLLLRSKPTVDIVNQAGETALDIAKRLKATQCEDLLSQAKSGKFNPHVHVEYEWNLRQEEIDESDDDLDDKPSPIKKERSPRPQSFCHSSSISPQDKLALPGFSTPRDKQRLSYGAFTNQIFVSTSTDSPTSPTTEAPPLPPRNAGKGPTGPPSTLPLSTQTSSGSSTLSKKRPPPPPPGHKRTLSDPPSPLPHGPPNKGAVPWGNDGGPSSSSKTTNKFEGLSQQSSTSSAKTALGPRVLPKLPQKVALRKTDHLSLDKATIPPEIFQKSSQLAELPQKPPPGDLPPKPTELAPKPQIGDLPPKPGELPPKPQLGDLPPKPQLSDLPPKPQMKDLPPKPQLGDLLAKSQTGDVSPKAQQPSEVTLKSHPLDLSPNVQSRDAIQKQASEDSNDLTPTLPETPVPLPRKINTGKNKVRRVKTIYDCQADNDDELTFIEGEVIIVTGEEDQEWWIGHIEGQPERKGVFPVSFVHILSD

[4] = biological target: ADP-ribosylation factor GTPase-activating protein 1 (Rattus norvegicus, UniProt Q62848); assay: Fluorescence polarization-based biochemical high throughput dose response screening assay to identify inhibitors of ADP-ribosylation factor GTPase activating protein 1 (ARFGAP1).; format: functional
Sequence of ADP-ribosylation factor GTPase-activating protein 1 (Q62848 whole entry): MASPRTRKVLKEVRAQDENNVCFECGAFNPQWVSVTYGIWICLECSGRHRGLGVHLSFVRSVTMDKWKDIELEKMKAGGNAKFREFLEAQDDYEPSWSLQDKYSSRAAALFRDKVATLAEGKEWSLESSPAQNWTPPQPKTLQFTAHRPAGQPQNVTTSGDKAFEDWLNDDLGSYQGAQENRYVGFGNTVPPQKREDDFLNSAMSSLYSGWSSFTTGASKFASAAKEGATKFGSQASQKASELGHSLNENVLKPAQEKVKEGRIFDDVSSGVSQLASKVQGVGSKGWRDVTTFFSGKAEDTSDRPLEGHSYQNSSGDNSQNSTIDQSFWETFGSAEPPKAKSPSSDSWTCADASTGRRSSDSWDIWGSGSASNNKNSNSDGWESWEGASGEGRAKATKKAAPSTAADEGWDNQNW

[5] = biological target: T1, Heat shock factor protein 1 (Mus musculus, UniProt P38532); assay: inhibition of MG132-induced HSE-luciferase signal, confirmation, cell-based, NIH3T3, luminescence, dose retest (AID 2382); format: functional;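 note: NIH3T3 fibroblasts with HSF1-driven luciferase reporter stressed by proteasome inhibitor MG132; luminescence from HSF1-driven luciferase expression after 8 hours of MG132 stress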
T1 sequence (P38532 whole entry): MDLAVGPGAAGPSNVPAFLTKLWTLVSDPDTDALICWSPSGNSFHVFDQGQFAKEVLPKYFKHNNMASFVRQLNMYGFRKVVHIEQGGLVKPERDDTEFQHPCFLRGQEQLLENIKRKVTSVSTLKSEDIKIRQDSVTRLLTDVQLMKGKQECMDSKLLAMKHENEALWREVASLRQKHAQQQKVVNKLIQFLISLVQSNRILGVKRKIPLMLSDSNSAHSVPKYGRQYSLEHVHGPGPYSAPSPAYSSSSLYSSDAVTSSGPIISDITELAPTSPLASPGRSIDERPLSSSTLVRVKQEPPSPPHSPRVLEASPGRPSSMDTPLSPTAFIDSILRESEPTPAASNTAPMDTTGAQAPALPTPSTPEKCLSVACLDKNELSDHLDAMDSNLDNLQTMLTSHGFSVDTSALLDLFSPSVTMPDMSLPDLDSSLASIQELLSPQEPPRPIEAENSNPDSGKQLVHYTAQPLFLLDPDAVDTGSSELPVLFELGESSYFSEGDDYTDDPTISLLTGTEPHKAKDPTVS

[6] = biological target: Botulinum neurotoxin type F (Clostridium botulinum, UniProt P30996); assay: High-throughput multiplex microsphere dose response for inhibitors of toxin protease, specifically Botulinum neurotoxin light chain F protease, compounds from Cherry Pick 02.; format: functional; conditions: read-out: EC50_MICROM
Sequence of Botulinum neurotoxin type F (P30996 1-436 limits assumed): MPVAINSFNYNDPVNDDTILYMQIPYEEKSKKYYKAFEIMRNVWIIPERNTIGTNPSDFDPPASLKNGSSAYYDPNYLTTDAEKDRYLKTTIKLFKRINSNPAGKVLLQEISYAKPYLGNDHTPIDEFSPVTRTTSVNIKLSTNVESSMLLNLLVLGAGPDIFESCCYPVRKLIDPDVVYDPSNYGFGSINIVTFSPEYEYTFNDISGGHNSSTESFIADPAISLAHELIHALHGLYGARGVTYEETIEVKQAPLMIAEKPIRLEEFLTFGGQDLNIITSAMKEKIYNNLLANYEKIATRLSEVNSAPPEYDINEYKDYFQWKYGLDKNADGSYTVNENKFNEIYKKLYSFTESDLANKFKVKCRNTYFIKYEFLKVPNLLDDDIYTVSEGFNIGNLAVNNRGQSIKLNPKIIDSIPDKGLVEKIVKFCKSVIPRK

[7] = biological target: T2, Protein skinhead-1 (Caenorhabditis elegans, UniProt P34707); format: functional
T2 sequence (P34707 whole entry): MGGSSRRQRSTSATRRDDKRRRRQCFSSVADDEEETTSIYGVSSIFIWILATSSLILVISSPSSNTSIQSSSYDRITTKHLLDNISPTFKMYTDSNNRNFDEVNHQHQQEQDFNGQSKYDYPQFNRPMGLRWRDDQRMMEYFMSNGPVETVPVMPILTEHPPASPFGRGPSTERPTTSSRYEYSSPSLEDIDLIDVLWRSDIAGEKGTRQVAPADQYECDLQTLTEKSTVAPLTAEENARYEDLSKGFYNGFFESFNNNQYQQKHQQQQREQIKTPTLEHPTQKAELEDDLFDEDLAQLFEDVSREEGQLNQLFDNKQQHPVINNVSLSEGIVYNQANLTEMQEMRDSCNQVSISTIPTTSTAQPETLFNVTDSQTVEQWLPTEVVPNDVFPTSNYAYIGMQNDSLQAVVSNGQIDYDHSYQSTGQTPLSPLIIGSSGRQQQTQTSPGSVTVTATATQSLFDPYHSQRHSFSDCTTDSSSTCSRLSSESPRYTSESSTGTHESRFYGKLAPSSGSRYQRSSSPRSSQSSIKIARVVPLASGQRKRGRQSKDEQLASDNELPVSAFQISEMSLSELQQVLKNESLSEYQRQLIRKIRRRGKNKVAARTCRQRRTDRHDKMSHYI

[8] = biological target: Lethal factor (Bacillus anthracis, UniProt P15917); assay: High-throughput multiplex microsphere dose response for inhibitors of toxin protease, specifically Lethal Factor protease, compounds from Cherry Pick 02.; format: functional; conditions: read-out: EC50_MICROM
Sequence of Lethal factor (P15917 whole entry): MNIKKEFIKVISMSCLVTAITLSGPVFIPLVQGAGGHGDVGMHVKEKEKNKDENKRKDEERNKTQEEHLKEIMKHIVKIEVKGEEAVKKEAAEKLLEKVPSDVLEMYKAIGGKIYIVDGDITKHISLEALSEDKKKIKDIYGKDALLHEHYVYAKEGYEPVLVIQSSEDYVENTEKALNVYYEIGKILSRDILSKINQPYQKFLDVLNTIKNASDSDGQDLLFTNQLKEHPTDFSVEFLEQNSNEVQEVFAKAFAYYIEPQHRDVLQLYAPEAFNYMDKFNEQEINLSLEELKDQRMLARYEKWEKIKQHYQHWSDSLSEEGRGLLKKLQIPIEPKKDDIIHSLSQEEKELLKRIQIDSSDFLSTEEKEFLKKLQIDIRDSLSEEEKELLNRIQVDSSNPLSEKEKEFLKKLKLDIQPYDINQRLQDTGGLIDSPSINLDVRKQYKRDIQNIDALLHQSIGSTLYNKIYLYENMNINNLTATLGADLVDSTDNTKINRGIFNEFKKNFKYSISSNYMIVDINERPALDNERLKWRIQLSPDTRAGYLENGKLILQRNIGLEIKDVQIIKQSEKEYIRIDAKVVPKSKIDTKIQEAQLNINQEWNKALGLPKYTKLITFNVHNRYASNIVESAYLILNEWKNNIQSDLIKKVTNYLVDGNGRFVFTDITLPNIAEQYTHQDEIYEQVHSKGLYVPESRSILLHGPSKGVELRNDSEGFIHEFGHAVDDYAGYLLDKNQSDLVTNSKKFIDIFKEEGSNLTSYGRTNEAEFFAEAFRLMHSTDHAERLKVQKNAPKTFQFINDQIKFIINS

[9] = biological target: Beta-lactamase (Pseudomonas aeruginosa, UniProt Q79MP6);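 note: biochemical dose-response test of metallo-beta-lactamase enzyme inhibition, read out by epi-absorbance; purified recombinant IMP-1 metallo-beta-lactamase with nitrocefin as substrate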
Sequence of Beta-lactamase (Pseudomonas aeruginosa, UniProt Q79MP6) (Q79MP6 whole entry): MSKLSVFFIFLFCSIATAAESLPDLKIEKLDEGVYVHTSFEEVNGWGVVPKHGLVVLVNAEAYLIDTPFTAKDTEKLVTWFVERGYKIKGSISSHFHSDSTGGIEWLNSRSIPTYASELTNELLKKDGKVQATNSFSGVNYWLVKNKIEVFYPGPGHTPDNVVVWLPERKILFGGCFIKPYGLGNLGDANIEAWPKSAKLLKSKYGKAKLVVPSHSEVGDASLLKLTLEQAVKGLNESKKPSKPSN

[10] = biological target: Beta-lactamase (Salmonella choleraesuis (strain SC-B67), UniProt Q5J463)
Sequence of Beta-lactamase (Salmonella choleraesuis (strain SC-B67), UniProt Q5J463) (Q5J463 whole entry): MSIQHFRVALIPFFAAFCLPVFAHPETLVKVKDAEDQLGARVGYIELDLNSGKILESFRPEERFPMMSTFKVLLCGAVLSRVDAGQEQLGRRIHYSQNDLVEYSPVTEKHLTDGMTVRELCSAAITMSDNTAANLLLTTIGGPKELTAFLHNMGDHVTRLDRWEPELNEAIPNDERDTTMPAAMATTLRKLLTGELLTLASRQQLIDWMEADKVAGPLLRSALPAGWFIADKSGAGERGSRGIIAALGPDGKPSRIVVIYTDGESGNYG

[11] = cells; format: functional
[12] = test system: Vero; assay: Vero cell toxicity, dose response, cytotoxicity control, plate reader, cherry-pick samples (AID 687020); format: functional, cell-based; conditions: Chlorocebus sabaeus
[13] = biological target: T3, Tyrosine-protein phosphatase non-receptor type 5 (Homo sapiens, UniProt P54829); assay: STEP phosphatase inhibitors, confirmation, biochemical, fluorescence intensity, uHTS hits (AID 602372); format: functional; conditions: read-out: IC50_Mean
T3 sequence (P54829 whole entry): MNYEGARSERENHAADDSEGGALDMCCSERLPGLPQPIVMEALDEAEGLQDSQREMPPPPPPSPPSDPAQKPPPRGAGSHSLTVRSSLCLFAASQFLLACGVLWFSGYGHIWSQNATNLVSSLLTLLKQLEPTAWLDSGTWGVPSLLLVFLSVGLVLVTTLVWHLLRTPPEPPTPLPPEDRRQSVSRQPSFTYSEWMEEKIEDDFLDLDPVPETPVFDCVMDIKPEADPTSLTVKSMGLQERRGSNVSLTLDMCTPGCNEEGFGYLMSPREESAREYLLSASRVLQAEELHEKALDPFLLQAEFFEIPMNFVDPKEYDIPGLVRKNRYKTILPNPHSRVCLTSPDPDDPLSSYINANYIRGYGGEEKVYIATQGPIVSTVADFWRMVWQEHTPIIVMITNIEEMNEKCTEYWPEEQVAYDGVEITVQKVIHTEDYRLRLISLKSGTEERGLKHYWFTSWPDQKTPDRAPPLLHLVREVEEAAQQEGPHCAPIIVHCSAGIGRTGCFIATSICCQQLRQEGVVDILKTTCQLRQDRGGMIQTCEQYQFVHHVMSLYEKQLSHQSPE

[14] = test system: H4; assay: Luminescence Cell-Based Dose Response HTS to Identify Activators of 5'UTR Stem-Loop Driven Prion Protein mRNA Translation in H4 Neuroglioblastoma Cells. [Related pubchem assays: 1829 (Project Summary), 1814 (Primary HTS)]; format: functional; conditions: Homo sapiens
[15] = biological target: Dual specificity protein phosphatase 3 (Homo sapiens, UniProt P51452); assay: VHR phosphatase inhibition, dose response, selectivity assay for STEP inhibitor project, biochemical (AID 602374); format: functional; conditions: read-out: IC50_Mean
Sequence of Dual specificity protein phosphatase 3 (P51452 whole entry): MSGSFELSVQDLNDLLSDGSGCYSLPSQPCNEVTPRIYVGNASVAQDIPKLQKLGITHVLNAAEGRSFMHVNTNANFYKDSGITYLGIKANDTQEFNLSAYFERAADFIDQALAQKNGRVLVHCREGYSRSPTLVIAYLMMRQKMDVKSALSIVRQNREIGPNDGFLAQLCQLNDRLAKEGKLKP

[16] = biological target: T4, Tyrosine-protein phosphatase non-receptor type 22 (Homo sapiens, UniProt Q9Y2R2); assay: PTPN22 phosphatase inhibition, dose response, selectivity assay for STEP inhibitor project, biochemical (AID 624241); format: functional
T4 sequence (Q9Y2R2 whole entry): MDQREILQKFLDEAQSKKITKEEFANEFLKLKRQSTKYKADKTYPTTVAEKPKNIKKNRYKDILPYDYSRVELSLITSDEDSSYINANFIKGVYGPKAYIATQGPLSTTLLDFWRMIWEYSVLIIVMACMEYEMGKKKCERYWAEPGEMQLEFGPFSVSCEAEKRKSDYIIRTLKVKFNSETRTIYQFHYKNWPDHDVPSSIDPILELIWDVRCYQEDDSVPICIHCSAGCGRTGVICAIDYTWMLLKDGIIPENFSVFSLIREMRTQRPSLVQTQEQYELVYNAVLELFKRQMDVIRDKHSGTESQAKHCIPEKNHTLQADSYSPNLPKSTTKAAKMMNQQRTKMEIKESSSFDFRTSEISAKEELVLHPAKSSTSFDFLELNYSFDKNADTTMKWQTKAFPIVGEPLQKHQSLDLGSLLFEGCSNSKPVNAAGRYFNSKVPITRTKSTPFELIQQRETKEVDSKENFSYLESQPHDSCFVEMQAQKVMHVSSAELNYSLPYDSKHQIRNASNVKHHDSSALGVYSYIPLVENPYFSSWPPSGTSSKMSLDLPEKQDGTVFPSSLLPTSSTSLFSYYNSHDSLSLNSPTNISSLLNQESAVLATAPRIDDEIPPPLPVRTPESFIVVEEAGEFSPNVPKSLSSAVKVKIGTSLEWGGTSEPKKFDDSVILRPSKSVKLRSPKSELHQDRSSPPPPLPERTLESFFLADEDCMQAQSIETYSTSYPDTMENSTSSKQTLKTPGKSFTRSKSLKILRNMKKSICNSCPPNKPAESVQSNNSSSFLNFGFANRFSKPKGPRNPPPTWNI

[17] = Luminescence Cell-Based Dose Confirmation HTS to Identify Activators of 5'UTR Stem-Loop Driven Alpha-Synuclein mRNA Translation in H4 Neuroglioblastoma Cells. [Related pubchem assays: 1829 (Project Summary), 1814 (Primary HTS)]; format: functional
[18] = biological target: T5, Carboxy-terminal domain RNA polymerase II polypeptide A small phosphatase 1 (Homo sapiens, UniProt Q9GZU7); assay: inhibitors of CTDSP1, concentration-response testing, biochemical assay, absorbance-based, actives from ultra-high-throughput screening (AID 540297); format: functional
T5 sequence (Q9GZU7 whole entry): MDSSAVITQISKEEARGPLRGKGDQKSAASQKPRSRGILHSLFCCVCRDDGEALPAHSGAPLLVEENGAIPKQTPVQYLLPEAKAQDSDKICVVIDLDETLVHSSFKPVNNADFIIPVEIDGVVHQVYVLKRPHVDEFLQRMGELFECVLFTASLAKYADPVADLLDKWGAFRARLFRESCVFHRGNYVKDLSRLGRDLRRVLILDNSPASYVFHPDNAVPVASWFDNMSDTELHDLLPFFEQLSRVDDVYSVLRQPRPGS

[19] = Luminescence Cell-Based Dose Response HTS to Identify Activators of Luciferase Translation or Activity in H4 […] Cells. [Related pubchem assays: 1829 (Project Summary), 1814 (Primary HTS)]; format: functional
[20] = biological target: T6, Tyrosine-protein phosphatase non-receptor type 11 (Homo sapiens, UniProt Q06124); assay: SHP2 phosphatase inhibition, dose response, selectivity assay for STEP inhibitor project, biochemical (AID 602367); format: functional; conditions: read-out: IC50_Mean
T6 sequence (Q06124 whole entry): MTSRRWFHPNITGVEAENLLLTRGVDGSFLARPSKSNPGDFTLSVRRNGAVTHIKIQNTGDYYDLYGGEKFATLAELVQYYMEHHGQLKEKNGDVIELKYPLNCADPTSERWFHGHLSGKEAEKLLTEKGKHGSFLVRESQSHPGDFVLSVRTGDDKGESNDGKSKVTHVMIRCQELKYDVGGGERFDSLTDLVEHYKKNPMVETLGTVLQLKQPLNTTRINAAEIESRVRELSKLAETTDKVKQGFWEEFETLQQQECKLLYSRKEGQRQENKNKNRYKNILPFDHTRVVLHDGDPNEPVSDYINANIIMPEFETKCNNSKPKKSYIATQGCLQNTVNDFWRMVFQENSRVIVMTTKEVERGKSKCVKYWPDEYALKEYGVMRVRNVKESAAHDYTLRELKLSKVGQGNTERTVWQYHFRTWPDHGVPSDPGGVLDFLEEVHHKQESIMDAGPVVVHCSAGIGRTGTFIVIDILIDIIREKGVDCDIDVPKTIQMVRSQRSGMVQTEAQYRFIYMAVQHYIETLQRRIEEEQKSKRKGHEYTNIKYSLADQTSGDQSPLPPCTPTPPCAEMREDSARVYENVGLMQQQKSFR

[21] = biological target: T7, Low molecular weight phosphotyrosine protein phosphatase (Homo sapiens, UniProt P24666); format: functional; conditions: read-out: IC50_Mean
T7 sequence (P24666 whole entry): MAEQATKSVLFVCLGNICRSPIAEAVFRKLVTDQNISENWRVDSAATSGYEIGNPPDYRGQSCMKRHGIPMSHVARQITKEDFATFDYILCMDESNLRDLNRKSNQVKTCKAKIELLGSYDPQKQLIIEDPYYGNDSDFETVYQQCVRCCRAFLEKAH

[22] = biological target: T4, Tyrosine-protein phosphatase non-receptor type 22; assay: LYP phosphatase inhibition for selectivity, dose response, selectivity assay for LMPTP inhibitor project, biochemical, fluorescence, LYP catalytic domain (AID 652006); format: functional; conditions: read-out: IC50_Mean
[23] = HepG2 cell cytotoxicity, dose response, cytotoxicity control for Shn3 inhibitor project, CellTiter-Glo, cherry-picked (AID 624134); format: functional, cell-based
[24] = control 3'UTR Renilla luciferase suppression, dose response, counter-screen for Shn3 inhibitor project, cell-based, Clone20-Shn3RL, cherry-picked (AID 624133); format: functional
[25] = biological target: T7, Low molecular weight phosphotyrosine protein phosphatase; format: functional; conditions: read-out: IC50_Mean; remark: listed apart in the source
[26] = Shn3 3'UTR reporter inhibitors, dose response, cell-based, Clone20 osteoblasts, firefly luciferase, cherry-picked (AID 624132); format: functional;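 note: firefly luciferase luminescence from reporter carrying the Shn3 3'UTR in osteoblasts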
[27] = biological target: T8, Palmitoyl-protein thioesterase ABHD10, mitochondrial (Mus musculus, UniProt Q6PE15); assay: Late stage assay provider results from the probe development effort to identify inhibitors of PME-1: fluorescence-based dose response biochemical gel-based competitive Activity-Based Protein Profiling (ABPP) inhibition of ABHD10 Set 1.; format: functional
T8 sequence (Q6PE15 whole entry): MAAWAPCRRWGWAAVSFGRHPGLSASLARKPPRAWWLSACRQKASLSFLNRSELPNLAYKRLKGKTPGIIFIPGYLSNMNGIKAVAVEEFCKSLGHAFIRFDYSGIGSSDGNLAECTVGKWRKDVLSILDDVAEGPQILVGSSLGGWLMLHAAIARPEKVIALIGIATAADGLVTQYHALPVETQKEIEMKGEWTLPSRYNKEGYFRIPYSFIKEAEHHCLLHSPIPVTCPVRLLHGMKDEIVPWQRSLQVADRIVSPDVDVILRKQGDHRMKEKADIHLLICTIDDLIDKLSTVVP

[28] = biological target: T8, Palmitoyl-protein thioesterase ABHD10, mitochondrial; assay: Late stage assay provider results from the probe development effort to identify inhibitors of PME-1: fluorescence-based dose response cell-based gel-based competitive Activity-Based Protein Profiling (ABPP) inhibition of ABHD10.; format: functional

Sequence of Mu-type opioid receptor (P35372 whole entry): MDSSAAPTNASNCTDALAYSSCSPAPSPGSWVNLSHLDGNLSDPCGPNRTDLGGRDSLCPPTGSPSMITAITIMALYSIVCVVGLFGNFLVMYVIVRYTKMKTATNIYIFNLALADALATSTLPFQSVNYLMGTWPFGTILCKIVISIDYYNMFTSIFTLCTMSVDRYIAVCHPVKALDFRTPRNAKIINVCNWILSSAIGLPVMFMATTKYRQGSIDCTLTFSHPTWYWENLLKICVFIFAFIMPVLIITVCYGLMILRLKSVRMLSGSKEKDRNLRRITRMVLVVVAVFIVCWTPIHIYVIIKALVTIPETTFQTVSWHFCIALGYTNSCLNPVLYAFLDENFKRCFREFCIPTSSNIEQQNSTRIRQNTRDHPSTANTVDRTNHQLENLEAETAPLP

O=[N+]([O-])c1cccc(CN2CCN(c3ncccn3)CC2)c1
EC50 [1]: 92.5 µM (inactive)
EC50 [2]: 22.3 µM (inactive)

Cc1ccc(OCc2ccc(C(=O)Nc3ccc(C(N)=O)cc3)o2)c([N+](=O)[O-])c1
IC50 [3]: 14 µM (inactive)
IC50 [4]: 16.7 µM (inactive)

Cc1cc2ccccc2n1CCNC(=O)C(C)C
EC50 [5]: > 195 µM (not active)
EC50 [6]: > 20 µM (inactive)
IC50 [7]: 94.3 µM (inactive)
EC50 [8]: 19.5 µM (active)

CCN(CC)c1ccc2cc(C(=O)NCc3ccc(F)cc3)c(=N)oc2c1
IC50 [9]: > 59.6 µM (inactive)
IC50 [10]: 28.1 µM (inactive)
IC50 [11]: 2.12 µM (active)

O=C(Nc1ccccc1C(F)(F)F)C(O)(c1ccccc1)C1CCCCC1 (stereo not drawn)
AC50 [12]: 36.8 µM (active)

N#C/C(=C\c1ccc(OC(=O)c2ccc(Cl)s2)cc1)c1nc2ccccc2[nH]1
IC50 [13]: 16.9 µM (active)
EC50 [14]: 71.4 µM (active)
IC50 [15]: 2.49 µM (active)
IC50 [16]: 22.9 µM (inactive)
EC50 [17]: 13.1 µM (active)
IC50 [18]: 1.77 µM (active)
EC50 [19]: 19.1 µM (active)
IC50 [20]: 1.29 µM (active)

COc1cccc(CNc2nc(NCC3CC3)nc3ccsc23)c1OC
IC50 [21]: 12.3 µM (active)
IC50 [22]: 33.3 µM (inactive)
AC50 [23]: 34 µM (active)
AC50 [24]: 23.6 µM (active)
IC50 [25]: 11.5 µM (active)
AC50 [26]: 4.48 µM (active)

CC[C@@]1(c2ccc(C)cc2)C(=O)N(C(=O)OC(C)C)N1C(=O)OC(C)C
IC50 [27]: 0.017 µM (active)
IC50 [28]: 0.028 µM (active)
